Measurements published in publication PMC3433414, “Oral Administration of the Pimelic Diphenylamide HDAC Inhibitor HDACi 4b Is Unsuitable for Chronic Inhibition of HDAC Activity in the CNS In Vivo” (PLoS ONE, 2012).

Target: T1, HDAC3-NcoR2 (Homo sapiens, UniProt O15379)
T1 construct: purified recombinant human full length HDAC1 (cat# 50051), HDAC2 (cat# 50052), HDAC3-NcoR2 (cat# 50003); purchased BPS Bioscience (San Diego, CA) 50003
Experiment: Two-step fluorogenic deacetylase assay, recombinant HDAC3
Assay type: biochemical
Description: As described, the length of compound-enzyme incubation has been reported to be critical for this class of HDAC inhibitors, where a unique time-dependent increase in affinity and subsequent potency has been observed [36]–[38]. […] To better mimic physiological conditions, our experiments were performed at 37°C as opposed to room temperature as reported in previous studies. […] To confirm that this shift was independent of the time of 4b in aqueous solution, 4b was applied immediately to the enzyme-substrate mix both after preparing in aqueous buffer, and 120 min after preparation.
To assess the biochemical and cellular potency of 4b and its conversion products/metabolites, we utilized the two-step fluorogenic assay which measures the HDAC-mediated catalytic conversion of synthetic acetylated lysine substrates. In brief, on deacetylation of the substrates by HDAC activity, a protease site is unmasked which allows subsequent trypsin-mediated cleavage and release of the highly flourescent AMC molecules in a subsequent step of the assay. The substrates used were Lys_Ac_AMC (Bachem I-1875) for HDAC3 and (Ac)Arg-Gly-Lys(Ac) (Bachem I-1925) for HDAC1 and HDAC2. The final substrates used for each enzyme assessment were carefully selected after assessing the catalytic turnover of each of these substrates against HDAC1, HDAC2 and HDAC3 respectively, and selecting the ones that performed best. To assess Class IIa enzyme activity (HDAC4, 5, 7, 9) and Class I HDAC8 activity, we used the alternative substrate Boc_Lys_TFA (Bachem I-1985), equivalent to substrate 4 of [42]. Class IIa HDACs have approximately 1000-fold less catalytic activity than Class 1 enzymes, and show only extremely low turnover of acetylated substrates due to a Tyr to His mutation in the active site. However, the relatively labile and sterically more demanding trifluoracetyl group is readily hydrolyzed by the catalytically less avid Class IIa enzymes, allowing measurement of Class IIa activity using the 2-step fluorogenic assay. Intriguingly the Boc_Lys_TFA substrate seems to show almost total selectivity for Class IIa enzymes over class I and Class IIb enzymes, with the exception of HDAC8 ([42], and internal data).
For evaluation of the class selectivity of the compounds, we assessed inhibition against purified recombinant human full length HDAC1 (cat# 50051), HDAC2 (cat# 50052), HDAC3-NcoR2 (cat# 50003) and HDAC8 (cat# 50008): as representative of Class I activity; catalytic domain HDAC4(αα 648–1057), HDAC5 (αα 657–1123; cat # 50005), HDAC7 (αα 518-end; cat # 50007) and HDAC9 (αα 604–1066; cat # 50009) activity: representing all Class IIa activity; and full length HDAC6 (cat#50006): representing Class IIb activity. With the exception of purified catalytic domain HDAC4, which was prepared for us by Emerald Biosciences (Seattle, WA), all HDAC enzymes were purchased from BPS Bioscience (San Diego, CA).
Unless otherwise stated in the text, assays were run in the following format in 384-well plates using automated liquid handling procedures. Briefly, frozen enzyme stock and compounds were diluted in assay buffer (50 mM Tris-HCl, 137 mM NaCl, 2.7 mM KCl, 1 mM MgCl2 at pH 8.0) and added to plates at concentrations sufficient to achieve a 16-point concentration-response curve from 50 µM to 1 nM at 1% DMSO final concentration, after addition of all reagents. Substrate diluted in assay buffer was then added and plates were incubated after brief shaking for 60 min at 37°C. Following incubation, a developer/stop-step was introduced to terminate the reaction and cleave the fluorescent substrate: either the addition of trypsin with 10 µM Compound 26 [44] for the Class IIa enzymes, or trypsin with 5 µM Trichostatin A (TSA) for the Class I/IIb enzymes. Plates were briefly shaken and then returned to the incubator for a further 60 min, followed by measurement of fluorescence per well (Ex 355 nm, Em 460 nm) on a Perkin Elmer EnVision. […]

T1 sequence (O15379 whole entry): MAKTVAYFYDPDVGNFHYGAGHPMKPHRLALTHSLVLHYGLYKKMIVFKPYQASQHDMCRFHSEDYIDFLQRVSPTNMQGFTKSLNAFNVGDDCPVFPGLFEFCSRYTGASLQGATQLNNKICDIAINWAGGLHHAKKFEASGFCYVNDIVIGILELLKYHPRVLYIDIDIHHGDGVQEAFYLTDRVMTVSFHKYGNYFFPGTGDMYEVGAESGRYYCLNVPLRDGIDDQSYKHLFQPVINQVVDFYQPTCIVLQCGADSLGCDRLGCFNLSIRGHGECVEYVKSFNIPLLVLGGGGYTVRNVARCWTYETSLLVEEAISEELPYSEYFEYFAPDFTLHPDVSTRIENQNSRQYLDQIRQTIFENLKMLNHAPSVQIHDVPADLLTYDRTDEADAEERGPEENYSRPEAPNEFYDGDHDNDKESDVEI
T1 sequence (Q9Y618 395-489 partner limits assumed): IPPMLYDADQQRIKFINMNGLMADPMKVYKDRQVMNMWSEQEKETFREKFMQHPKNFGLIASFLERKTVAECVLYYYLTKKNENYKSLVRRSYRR

Nc1ccccc1NC(=O)CCCCCC(=O)Nc1ccccc1 [Compound 4b]
selectivity for HDAC3 over HDAC2: ~9 fold
IC50 (0 min pre-incubation with enzyme, then 60 min substrate, 37°C): 650 nM
IC50 (2 h pre-incubation with enzyme (3 h incubation in total), 37°C): 80 nM
IC50 (no enzyme pre-incubation, applied 120 min after preparation in aqueous buffer): 650 nM
IC50 (no enzyme pre-incubation, applied immediately after preparing in aqueous buffer): 970 nM
selectivity within the Class I enzymes for HDAC3 (standard screening format): ~6 fold
IC50 (standard screening format, free base, DMSO stock): 254 nM
